Earlier results as cited in patent EP2484728B1, “Ink composition, ink set, and image forming method” (Fujifilm Corporation, priority 2011, dated 2012).

Settings: 25°C; Polymer Handbook values, otherwise calculated by the Fedors method
In the case of “Dodecaoxyethylene dodecaoxypropylene butyl ether”, the SP value is listed as 18.8 (MPa)^1/2. For POP (4) glyceryl ether, the SP value is given as 24.9 (MPa)^1/2. In the case of `CCCCOCCOCCOCCO` [Triethylene glycol monobutyl ether], the SP value is given as 21.1 (MPa)^1/2. For POP (16) glyceryl ether, the SP value is listed as 20.2 (MPa)^1/2. For POP (9) glyceryl ether, the SP value is given as 21.7 (MPa)^1/2. For POP (3) glycerylether, the SP value is given as 26. 4 (MPa)^1/2. For POP (10) glyceryl ether, the SP value is given as 21.4 (MPa)^1/2. For “Pentacosaoxyethylene triacontaoxypropylene butyl ether”, the SP value is given as 18.8 (MPa)^1/2. In the case of “Decaoxyethylene heptaoxypropylene butyl ether”, the SP value is given as 18.8 (MPa)^1/2. In the case of `COC(C)COC(C)COC(C)CO` (centres unmarked) [Tripropylene glycol monomethyl ether], the SP value is listed as 20.4 (MPa)^1/2. In the case of “Dioxyethylene dioxypropylene butyl ether”, the SP value is given as 20.1 (MPa)^1/2. In the case of `OCCOCCO` [DEG, Diethylene glycol], the SP value is given as “DEG (30.6) (MPa)^1/2”. For POP (5) glyceryl ether, the SP value is listed as 23.9 (MPa)^1/2. In the case of `CCCCC(O)CO` (centres unmarked) [1,2-Hexanediol], the SP value is given as 24.1 (MPa)^1/2. In the case of POP (7) glyceryl ether, the SP value is given as 22.6 (MPa)^1/2. In the case of “Decaoxyethylene triacontaoxypropylene butyl ether”, the SP value is listed as 18.7 (MPa)^1/2. For `CC(O)COC(C)COC(C)COC(C)COC(C)COC(C)COC(C)CO` (centres unmarked) [Heptapropylene glycol], the SP value is listed as 21.2 (MPa)^1/2. In the case of `CCCCOCCOCCO` [Diethylene glycol monobutyl ether], the SP value is given as 21.5 (MPa)^1/2. For POE (40) diglyceryl ether, the SP value is given as 21.0 (MPa)^1/2. In the case of `CC(O)COC(C)COC(C)CO` (centres unmarked) [Tripropylene glycol], the SP value is listed as 24.7 (MPa)^1/2. For `OCC(O)CO` [glycerin], the SP value is given as “glycerin (33.5) (MPa)^1/2”. In the case of POP (4) diglyceryl ether, the SP value is listed as 26.1 (MPa)^1/2. For POE (20) diglyceryl ether, the SP value is given as 22.4 (MPa)^1/2. For `COCCOCCO` [Diethylene glycol monomethyl ether], the SP value is given as 22.4 (MPa)^1/2. For POP (6) glyceryl ether, the SP value is given as 23. 2 (MPa)^1/2. For `COCCOCCOCCO` [Triethylene glycol monomethyl ether], the SP value is listed as 22.1 (MPa)^1/2. In the case of POP (8) glyceryl ether, the SP value is given as 22.1 (MPa)^1/2. For “Pentaoxyethylene pentaoxypropylene butyl ether”, the SP value is given as 18.8 (MPa)^1/2. For `COC(C)COC(C)CO` (centres unmarked) [Dipropylene glycol monomethyl ether], the SP value is listed as 21.3 (MPa)^1/2. For `CCOCCOCCOCCO` [Triethylene glycol monoethyl ether], the SP value is given as 21.7 (MPa)^1/2. In the case of POP (9) diglyceryl ether, the SP value is given as 22.7 (MPa)^1/2. For `CCOCC(C)O` (centres unmarked) [Propylene glycol monoethyl ether], the SP value is listed as 22.3 (MPa)^1/2.
